The values below come from paper PMC7111280 (European Journal of Medicinal Chemistry, 2018).

One data set concerns Hel cells. Conditions: Table 5, HSV/vaccinia assays, Hel cell morphology.
A further data set relates to HSV-1 (TK−) KOS ACVr. Description: microbe, parasite or virus in culture. To be noted: Human alphaherpesvirus 1, HEL, read-out: HSV-1 (TK−) KOS ACVr EC50. In kind it is cell-based, herpes simplex virus type 1.
The next data set has as its system vaccinia virus. Description: microbe, parasite or virus in culture. In kind it is cell-based. Conditions: Orthopoxvirus vaccinia, HEL, read-out: vaccinia virus EC50.
A further data set deals with CEM. To be noted: read-out: CEM IC50; proliferation, Coulter Counter cell count; cited from earlier work.
Another data set concerns HeLa. Conditions: read-out: HeLa IC50; proliferation, Coulter Counter cell count; cited from earlier work.
The test system of another data set is L1210. To be noted: read-out: L1210 IC50; proliferation, Coulter Counter cell count; cited from earlier work.
A further data set has as its system HMVEC. The data set is described as follows: Endothelial cell proliferation, Coulter counter. In kind it is cell-based. To be noted: Homo sapiens, 96 h, read-out: HMVEC IC50.
A further data set deals with MDA-MB-231-LM2 cells. The data set is described as follows: Metastatic breast cancer xenograft mouse model. Type of data set: in vivo, SCID mice.
The subject of another data set is CMV (AD-169). The data set is described as follows: Antiviral cytopathicity assay in Hel cells. Type of data set: cell-based, human cytomegalovirus.

`Nc1nc2c(ncn2COCCO)c(=O)[nH]1` [Acyclovir, reference compound]: in the data set on Hel cells, the “MCC (minimal cytotoxic concentration)” value is over 250 µM. In general, EC50 refers to the concentration at which the effect is half-maximal. For `Nc1ccn(C[C@@H](CO)OCP(=O)(O)O)c(=O)n1.O.O` [Cidofovir], the concentration for a half-maximal effect (EC50) with HSV-1 (TK−) KOS ACVr came out at 2000 nM; in the data set on vaccinia virus it was 22000 nM. The “MCC (minimal cytotoxic concentration)” value in the data set with Hel cells was over 250 µM. What is called IC50 is the concentration that gives 50% inhibition. Consider `C#C[C@@]1(O)[C@@H](CO)O[C@@H](n2cnc3c(N)ncnc32)[C@@H]1O` [Compound 5, 3′-C-ethynyladenosine], for which the IC50 with CEM is 610 ± 80 nM; in the data set on HeLa, 290 ± 110 nM; in the data set on L1210 it was 730 ± 140 nM. The EC50 in the data set with vaccinia virus stood at 350 ± 50 nM. Regarding `C#C[C@@]1(O)[C@@H](CO)O[C@@H](n2cc(F)c3c(N)ncnc32)[C@@H]1O` [Compound 31, 4-amino-5-fluoro-N7-(3′-C-ethynyl-β-D-ribofuranosyl)-pyrrolo[2,3-d]pyrimidine], the IC50 in the data set with HMVEC was under 1.28 nM. Take `C#C[C@@]1(O)[C@@H](CO)O[C@@H](n2cc(Cl)c3c(N)ncnc32)[C@@H]1O` [Compound 32, 4-amino-5-chloro-N7-(3′-C-ethynyl-β-D-ribofuranosyl)-pyrrolo[2,3-d]pyrimidine]: in the data set on MDA-MB-231-LM2 cells (0.3 mg/kg i.t., starting from day 18, after four i.t. injections), the “tumor growth (BLI radiance, caliper)” value is reported as “significantly retarded”. Besides, the “total metastasis burden in the lungs (BLI)” value in the data set with MDA-MB-231-LM2 cells (day 34 versus vehicle control group) is “significantly lower”. Moreover, the IC50 in the data set on HMVEC was under 1.28 nM.

With `C#C[C@@]1(O)[C@@H](CO)O[C@@H](n2cc(I)c3c(N)ncnc32)[C@@H]1O` [Compound 34, 4-amino-5-iodo-N7-(3′-C-ethynyl-β-D-ribofuranosyl)-pyrrolo[2,3-d]pyrimidine], in the data set with HMVEC, the IC50 is under 1.28 nM.

As to `C#C[C@@]1(O)[C@@H](CO)O[C@@H](n2cc(Cl)c3c(Cl)ccnc32)[C@@H]1O` [Compound 66, 3,4-dichloro-N1-(3′-C-ethynyl-β-D-ribofuranosyl)-pyrrolo[2,3-b]pyridine], the selectivity index in the data set with CMV (AD-169) (human cytomegalovirus (hCMV)) was determined as 10 fold. In addition, in the data set on Hel cells, the “MCC (minimal cytotoxic concentration)” value is at least 100 µM. On to `C#C[C@@]1(O)[C@@H](CO)O[C@@H](n2cc(Br)c3c(Cl)ccnc32)[C@@H]1O` [Compound 67, 3-bromo-4-chloro-N1-(3′-C-ethynyl-β-D-ribofuranosyl)-pyrrolo[2,3-b]pyridine], for which, in the data set with Hel cells, the “MCC (minimal cytotoxic concentration)” value is over 100 µM.

On to `C#C[C@@]1(O)[C@@H](CO)O[C@@H](n2cc(I)c3c(Cl)ccnc32)[C@@H]1O` [Compound 68, 3-iodo-4-chloro-N1-(3′-C-ethynyl-β-D-ribofuranosyl)-pyrrolo[2,3-b]pyridine], for which, in the data set with Hel cells, the “MCC (minimal cytotoxic concentration)” value is over 100 µM. For `C#C[C@@]1(O)[C@@H](CO)O[C@@H](n2ccc3c(Cl)ccnc32)[C@@H]1O` [Compound 70, 4-chloro-N1-(3′-C-ethynyl-β-D-ribofuranosyl)-pyrrolo[2,3-b]pyridine], the “activity against hCMV” value in the data set with CMV (AD-169) was “inactive”. Moreover, in the data set on Hel cells, the “MCC (minimal cytotoxic concentration)” value is over 100 µM. Take `Nc1nc(O)c2ncn(COC(CO)CO)c2n1` [Ganciclovir, reference compound]: the “MCC (minimal cytotoxic concentration)” value in the data set on Hel cells was over 100 µM.
